Test results published in the supplement of paper PMC10307832.

Experiments:
Test in all cases: relative viability (nuclei count vs DMSO), 5 days (fraction); higher = more cells survive
SW 1573 = system: SW 1573
How it was run: (§1)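 Dosing by pin tool came one day after lung cancer cell lines were seeded in 1536-well plates, using either one drug or a fixed anchor-drug dose plus five library-drug doses (not always all listed) in √10 steps. After 5 days, nuclei were counted on 4× images. Relative viability is treated-well nuclei count divided by vehicle-well nuclei count, and values are medians of duplicate plates.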

NCI-H1755 = system: NCI-H1755
How it was run: as §1

A-427 = system: A-427
How it was run: as §1

NCI-H1792 = system: NCI-H1792
How it was run: as §1

NCI-H1915 = system: NCI-H1915
How it was run: as §1

NCI-H1355 = system: NCI-H1355
How it was run: as §1

NCI-H727 = system: NCI-H727
How it was run: as §1

NCI-H2228 = system: NCI-H2228
How it was run: as §1

HCC-827 = system: HCC-827
How it was run: as §1

SK-LU-1 = system: SK-LU-1
How it was run: as §1

NCI-H23 = system: NCI-H23
How it was run: as §1

NCI-H1395 = details: first compound 0.04 µM
How it was run: as §1

Compound `Clc1ccc(Nc2nnc(Cc3ccncc3)c3ccccc23)cc1` [Vatalanib] + CS(=O)(=O)N1CCN(Cc2cc3nc(-c4cccc5[nH]ncc45)nc(N4CCOCC4)c3s2)CC1 [Pictilisib] (partner 1 µM) has a relative viability (SW 1573; first compound 0.04 µM) of 0.596, a relative viability (SW 1573; first compound 0.1265 µM) of 0.525 and a relative viability (SW 1573; first compound 0.4 µM) of 0.544. For the same compound, the relative viability (SW 1573; first compound 1.265 µM) was 0.408, the relative viability (SW 1573; first compound 4 µM) was 0.556 and the relative viability (NCI-H1755; first compound 0.04 µM) was 0.405. For the same compound, the relative viability (NCI-H1755; first compound 0.1265 µM) was 0.395, the relative viability (NCI-H1755; first compound 0.4 µM) was 0.453 and the relative viability (NCI-H1755; first compound 1.265 µM) was 0.387. For the same compound, the relative viability (NCI-H1755; first compound 4 µM) was 0.383, the relative viability (A-427; first compound 0.04 µM) was 0.667 and the relative viability (A-427; first compound 0.1265 µM) was 0.671. For the same compound, the relative viability (A-427; first compound 0.4 µM) was 0.736, the relative viability (A-427; first compound 1.265 µM) was 0.624 and the relative viability (A-427; first compound 4 µM) was 0.677. The relative viability (NCI-H1792; first compound 0.04 µM) was 0.279, the relative viability (NCI-H1792; first compound 0.1265 µM) was 0.327 and the relative viability (NCI-H1792; first compound 0.4 µM) was 0.249. For the same compound, the relative viability (NCI-H1792; first compound 1.265 µM) was 0.276, the relative viability (NCI-H1792; first compound 4 µM) was 0.28 and the relative viability (NCI-H1915; first compound 0.04 µM) was 1.12. For the same compound, the relative viability (NCI-H1915; first compound 0.1265 µM) was 0.929, the relative viability (NCI-H1915; first compound 0.4 µM) was 0.972 and the relative viability (NCI-H1915; first compound 1.265 µM) was 0.863. For the same compound, the relative viability (NCI-H1915; first compound 4 µM) was 0.942, the relative viability (NCI-H1355; first compound 0.04 µM) was 0.391 and the relative viability (NCI-H1355; first compound 0.1265 µM) was 0.441. For the same compound, the relative viability (NCI-H1355; first compound 0.4 µM) was 0.53, the relative viability (NCI-H1355; first compound 1.265 µM) was 0.394 and the relative viability (NCI-H1355; first compound 4 µM) was 0.457. It also gave a relative viability (NCI-H727; first compound 0.04 µM) of 0.421, a relative viability (NCI-H727; first compound 0.1265 µM) of 0.355 and a relative viability (NCI-H727; first compound 0.4 µM) of 0.359. The relative viability (NCI-H727; first compound 1.265 µM) was 0.399, the relative viability (NCI-H727; first compound 4 µM) was 0.433 and the relative viability (NCI-H2228; first compound 0.04 µM) was 0.313. For the same compound, the relative viability (NCI-H2228; first compound 0.1265 µM) was 0.432, the relative viability (NCI-H2228; first compound 0.4 µM) was 0.317 and the relative viability (NCI-H2228; first compound 1.265 µM) was 0.379. The relative viability (NCI-H2228; first compound 4 µM) was 0.432, the relative viability (HCC-827; first compound 0.04 µM) was 0.974 and the relative viability (HCC-827; first compound 0.1265 µM) was 0.872. For the same compound, the relative viability (HCC-827; first compound 0.4 µM) was 0.925, the relative viability (HCC-827; first compound 1.265 µM) was 1.06 and the relative viability (HCC-827; first compound 4 µM) was 0.863. It also gave a relative viability (SK-LU-1; first compound 0.04 µM) of 0.596, a relative viability (SK-LU-1; first compound 0.1265 µM) of 0.581 and a relative viability (SK-LU-1; first compound 0.4 µM) of 0.523. It also gave a relative viability (SK-LU-1; first compound 1.265 µM) of 0.535, a relative viability (SK-LU-1; first compound 4 µM) of 0.527 and a relative viability (NCI-H23; first compound 0.04 µM) of 0.45. The relative viability (NCI-H23; first compound 0.1265 µM) was 0.412, the relative viability (NCI-H23; first compound 0.4 µM) was 0.511 and the relative viability (NCI-H23; first compound 1.265 µM) was 0.436. It also gave a relative viability (NCI-H23; first compound 4 µM) of 0.552 and a relative viability (NCI-H1395) of 0.814.
